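The compound was tested at five concentrations on cells cultured in 96-well plates, with a 48-hour exposure period. Here, GI50 denotes the concentration required for 50% inhibition of growth.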 Calls of active or inactive are those of the source. Cut-off read from the data, not from the text of the source: active = GI50 up to about 1.1 µM and inactive = higher.
Legend:
Experiment in all cases: NCI tumour cell line growth inhibition, 48 h
[1] = system: K562
[2] = system: NCI-H460
[3] = system: COLO 205
[4] = system: LOX IMVI
[5] = system: SK-MEL-2
[6] = system: HT-29
[7] = system: UACC-62
[8] = system: SK-MEL-5
[9] = system: SF-268
[10] = system: A549
[11] = system: UACC-257
[12] = system: KM-20L2
[13] = system: CCRF-CEM
[14] = system: SNB-78
[15] = system: OVCAR-5

Measured: GI50

C[C@]12CC[C@H](OC(=O)Cc3ccc(N(CCCl)CCCl)cc3)CC1CC[C@@H]1C2CC[C@]2(C)NC(=O)CCC12 (stereo partly specified)
inactive: [1] 4.06 µM | [2] 5.16 µM | [3] 5.4 µM | [4] 13.2 µM | [5] 25.5 µM | [6] 1.87 µM | [7] 6.68 µM | [8] 15.6 µM | [9] 9.64 µM | [10] 14.6 µM | [11] 13.2 µM | [12] 5.58 µM | [13] 3.54 µM | [14] 14.1 µM

O=C(/C=C/c1ccccc1O)c1ccccc1O
inactive: [1] 19.8 µM | [2] > 100 µM | [3] > 100 µM | [4] > 100 µM | [5] 80.9 µM | [6] > 100 µM | [7] > 100 µM | [8] > 100 µM | [9] > 100 µM | [10] > 100 µM | [11] > 100 µM | [12] > 100 µM | [15] > 100 µM | [13] 5.74 µM | [14] > 100 µM

CCCCCCCCCCCCCC(=O)OCC1OC(n2cc(F)c(=O)[nH]c2=O)C(N)C(OC(=O)CCCCCCCCCCCCC)C1O (stereo unspecified)
inactive: [1] > 100 µM | [2] > 100 µM | [3] > 100 µM | [4] > 100 µM | [5] > 100 µM | [6] > 100 µM | [7] > 100 µM | [8] > 100 µM | [9] > 100 µM | [10] > 100 µM | [11] > 100 µM | [12] > 100 µM | [13] > 10 µM | [14] > 100 µM

COc1ccc(C(=O)C#Cc2cnc(O)nc2O)cc1
inactive: [1] 3.61 µM | [2] 25.1 µM | [3] 11.9 µM | [4] 3.21 µM | [5] 7.46 µM | [6] 11.5 µM | [7] 12.9 µM | [8] 13.5 µM | [9] 21.1 µM | [10] 20.7 µM | [11] 11.9 µM | [12] 9.86 µM | [15] 17.1 µM | [13] 2.52 µM | [14] 16.1 µM

Oc1ccccc1-c1cnnc(-c2ccccc2O)c1
inactive: [1] 7.73 µM | [3] 22 µM | [4] 20.3 µM | [5] 20.5 µM | [6] 26.5 µM | [7] 17.5 µM | [9] 38.2 µM | [11] 25.1 µM | [12] 43.5 µM | [15] 28.6 µM | [13] 13.4 µM | [14] 33.3 µM

O=C(O)CCCSC(=O)Nc1ccc(/N=N/c2ccccc2)cc1
inactive: [1] 65.9 µM | [2] > 100 µM | [3] > 100 µM | [4] > 100 µM | [5] > 100 µM | [6] > 100 µM | [7] > 100 µM | [9] 56.1 µM | [10] > 100 µM | [11] > 100 µM | [12] > 100 µM | [15] > 100 µM | [13] 31.7 µM | [14] > 100 µM

Cc1cc(Cl)cc2c1NC(=O)C2(O)CC(=O)c1ccc(F)cc1 (stereo unspecified)
inactive: [2] 83.8 µM | [3] 24.8 µM | [4] 27.7 µM | [5] 73.3 µM | [6] 48.1 µM | [7] 20 µM | [9] 67 µM | [10] 30.2 µM | [11] 37.3 µM | [12] > 100 µM | [15] > 100 µM | [14] 31.4 µM

Cc1cc(-c2ccccc2)cc2[n+]1CC=C2.[O-][Cl+3]([O-])([O-])[O-]
inactive: [2] > 100 µM | [3] > 100 µM | [4] > 100 µM | [5] > 100 µM | [6] 52.7 µM | [9] > 100 µM | [10] > 100 µM | [11] > 100 µM | [12] > 100 µM | [15] > 100 µM | [14] > 100 µM

CC(=O)O[C@H]1C(=O)[C@@]2(C)C(C(OC(=O)c3ccccc3)C3[C@@H](O)C(OC(=O)[C@@H](O)[C@H](NC(=O)c4ccccc4)c4ccc(C(F)(F)F)cc4)C(C)=C1C3(C)C)[C@]1(OC(C)=O)CO[C@@H]1C[C@@H]2O (stereo partly specified)
inactive: [1] 12.4 µM | [2] 23.9 µM | [3] 9.55 µM | [4] 16.1 µM | [5] > 25 µM | [6] 12.6 µM | [7] 19.2 µM | [8] 8.26 µM | [9] > 25 µM | [10] 17.9 µM | [11] > 25 µM | [12] 8.73 µM | [15] > 25 µM | [13] 18.2 µM | [14] > 25 µM

CC(C)(CN1CCCCC1)C(=O)/C=C/c1ccc(Br)cc1
inactive: [1] 2.59 µM | [3] 2.25 µM | [4] 2.03 µM | [5] 3.69 µM | [6] 3.1 µM | [7] 6.56 µM | [8] 4.67 µM | [9] 2.34 µM | [10] 2.86 µM | [11] 6.31 µM | [12] 2.49 µM | [15] 2.78 µM | [13] 2.77 µM | [14] 8.07 µM

Cc1cc(C)c2[s+]snc2c1
inactive: [1] 27.7 µM | [2] 75.7 µM | [3] > 100 µM | [4] 37.8 µM | [5] 75 µM | [6] 52.5 µM | [7] 36.6 µM | [8] > 100 µM | [9] 60.5 µM | [10] 95.1 µM | [11] 72.3 µM | [12] > 100 µM | [15] > 100 µM | [13] 28.5 µM | [14] 84.3 µM

CCOP(=O)(OCC)/C(C#N)=C\c1ccsc1
inactive: [2] > 100 µM | [3] > 100 µM | [4] > 100 µM | [5] > 100 µM | [6] > 100 µM | [7] > 100 µM | [8] > 100 µM | [9] > 100 µM | [10] > 100 µM | [11] > 100 µM | [12] > 100 µM | [15] > 100 µM | [14] > 100 µM

CN(C)CCC(=O)/C=C\c1ccccc1
inactive: [1] 13.2 µM | [2] 18.9 µM | [3] 15.8 µM | [4] 14.3 µM | [6] 19.5 µM | [7] 17.4 µM | [8] 17.6 µM | [10] 21.6 µM | [11] 17.3 µM | [12] 30.6 µM | [15] 20.9 µM | [13] 4.06 µM | [14] 15.5 µM

COc1ccc(NC(=O)/C(Cc2nc3ccccc3nc2O)=N\O)c(OC)c1
inactive: [1] > 100 µM | [2] > 100 µM | [3] > 100 µM | [4] > 100 µM | [6] > 100 µM | [7] > 100 µM | [8] > 100 µM | [9] > 100 µM | [10] > 100 µM | [11] > 100 µM | [12] > 100 µM | [15] > 100 µM | [13] > 100 µM | [14] > 100 µM

Source: ChEMBL document CHEMBL1201862, “PubChem BioAssay data set” (2004)
